Data from patent US20210220482A1, “MITOCHONDRIAL COPPER DEPLETION REPROGRAMS THE METABOLISM OF TRIPLE NEGATIVE BREAST CANCER” (The Board of Trustees of the Leland Stanford Junior …, priority 2019, published 2021).
Like-named read-outs stand apart in the source and are kept apart here.

Key:
[1] = system: MDA-MB-231 orthotopic tumors; assay: Long-term survival study; format: in vivo, nude mice; details: i.v. weekly, seven doses, chelator 1.35 mg kg^−1; ATN224 oral gavage 0.7 mg kg^−1 d^−1
From the text: The SPN group received an i.v. injection of the same amount of SPN as in the CDN group weekly for seven doses in total. […] The treatment plan was initiated when the average tumor size reached 50 mm^3 and the endpoint of the survival study was primary tumor volume over 500 mm^3 and/or other signs identified by the veterinarian. The tumor volumes were continuously monitored over the treatment plan.

[2] = system: MDA-MB-231 and MDA-MB-468 cells; assay: Western blot of cleaved caspase 3 (apoptosis); format: cell-based, human; details: 24 h incubation; CDM 1 μM, ATN224 5 μM, inhibitors 1 μM
Method: Then cells were trypsinized, and cell lysates were prepared with RIPA buffer (Thermo, cat. no. 89900). The protein concentrations were quantified by Pierce BCA assay (Thermo Scientific, 23250). Cleaved caspase 3 antibody was purchased from Cell Signaling Technologies (Asp175, no. 9661). SOD1 antibody was from Santa Cruz Biotechnologies (sc-101523).

[3] = system: MDA-MB-231 and MDA-MB-468 cells; assay: OCR and ECAR measurement (Seahorse); format: cell-based, human; details: after 1 h of incubation, both cell lines, vs nontreated control
Method: OCR and ECAR measurement. OCR and ECAR were measured by a Seahorse Bioscience instrument (XF96, Agilent). Briefly, on the day following MDA-MB-231 or MDA-MB-468 cell seeding, cells were incubated with CDN or control agents for 24 h (chelator concentration, 1 μM). On the day of measurement, cells were washed three times with D-PBS, changed into fresh medium without phenol red and bicarbonate (Seahorse base medium, cat. no. 103336-100) and equilibrated for 30 min in a 37° C. incubator lacking CO2. Oxygen concentration and extracellular acidification in media were measured at basal conditions and after sequential addition of oligomycin (1 μM, introduced after 28 min), FCCP (1 μM, introduced after 54 min) and rotenone/antimycin A (0.5 μM, introduced after 80 min) (n=8 per condition for OCR and ECAR for each cell line). […] Cells were then changed into Seahorse base medium and equilibrated for 30 min in a 37° C. incubator lacking CO2. Oxygen concentration and extracellular acidification in media were measured at basal conditions and after sequential addition of oligomycin (1 μM, introduced after 28 min), FCCP (1 μM, introduced after 54 min) and rotenone/antimycin A (0.5 μM, introduced after 80 min) (n=6 per condition for OCR and ECAR for each cell line).

MDA-MB-231luc cells = assay: In vitro copper depletion (CCL-1 luminescence, CDM fluorescence); format: cell-based, human; details: CDN (CDM 1 μM) with excess EDTA, 24 h
Method: In vitro copper depletion: The copper level after CDN or control agent treatment was measured by CCL-1 luminescence imaging or ratiometric fluorescence microscopic imaging of fCDN. […] SPN, 50 μg ml-1) was added and incubation was continued for 24 h. […] Cells were immediately imaged by IVIS Spectrum (PerkinElmer) for 45 min. The integration images of luminescent radiance were presented. […] Images were processed as green/red ratios profiled by ImageJ and presented in pseudo-colors.

[4] = system: MDA-MB-231 and MDA-MB-468 cells; assay: Cell viability with ROS scavenger MitoTEMPO; format: cell-based, human; details: MitoTEMPO up to 5 μM
Method: Cytotoxicity: For the MTS assay, TNBC and normal cells were seeded into 96-well plates 24 h before the test and cultured in a humidified atmosphere of 5% CO2 and 95% air at 37° C. Cells were then incubated with CDN or control agents with the concentrations indicated in FIG. 2 in complete medium or base medium without FBS supplement. At 24 h after incubation, cells were washed with PBS three times and changed to fresh medium. The viability of the cells after treatment was measured using the MTS assay (CellTiter 96, Promega, cat. no. G3580). The viability was presented as the percentage of control (n=3 per condition for viability). For the trypan blue exclusion test, TNBC cells were seeded into six-well plates 24 h before the test and cultured in a humidified atmosphere of 5% CO2 and 95% air at 37° C. Cells were then incubated with CDN or control agents in complete medium. […] The viability of the cells was measured with Countess II (Life Technology). […]
Cellular ATP measurement: ATP levels after CDN or control agent treatment were determined by Adenosine 5-triphosphate Bioluminescent Somatic Cell Assay Kit (Sigma-Aldrich, FLASC). […] The luminescence signals were measured by a Turner Biosystems 20/20n luminometer. The ATP concentration of each group was determined based on the ATP standard assay (n=3 per condition ATP production measurement for each cell line).

MDA-MB-231 cells = assay: Cytotoxicity MTS assay, MDA-MB-231; format: cell-based, human; details: MDA-MB-231, 24 h, in the presence of serum, read-out: half-maximum inhibitory concentration (IC50)
Method: (§1) Cytotoxicity: For the MTS assay, TNBC and normal cells were seeded into 96-well plates 24 h before the test and cultured in a humidified atmosphere of 5% CO2 and 95% air at 37° C. Cells were then incubated with CDN or control agents with the concentrations indicated in FIG. 2 in complete medium or base medium without FBS supplement. At 24 h after incubation, cells were washed with PBS three times and changed to fresh medium. The viability of the cells after treatment was measured using the MTS assay (CellTiter 96, Promega, cat. no. G3580). The viability was presented as the percentage of control (n=3 per condition for viability). For the trypan blue exclusion test, TNBC cells were seeded into six-well plates 24 h before the test and cultured in a humidified atmosphere of 5% CO2 and 95% air at 37° C. Cells were then incubated with CDN or control agents in complete medium. At 24 h after incubation, cells were washed with PBS three times and collected with a scraper. The cell suspension was then mixed with 0.4% trypan blue dye (1:1; Thermo Fisher Scientific, cat. no. 15250061) and incubated for less than 3 min at room temperature. The viability of the cells was measured with Countess II (Life Technology). The viability was presented as the percentage of control (n=3 per condition for viability).

MDA-MB-468 cells = assay: Cytotoxicity MTS assay, MDA-MB-468; format: cell-based, human; details: MDA-MB-468, 24 h, in the presence of serum
Method: as §1

[5] = system: MDA-MB-231luc orthotopic breast cancer; assay: Copper level in tumor after treatment (CCL-1/d-luciferin imaging); format: in vivo, mice; details: i.v. 1.35 mg kg^−1 every 3 d, day 25, compared with the control group
Method: For the treatment group, mice were intravenously injected with CDN or control agents every 3 d, with five doses in total. Tumor volume was continuously monitored over the treatment plan. At day 25 after initial treatment, mice were subjected to d-luciferin bioluminescence imaging (150 mg kg^−1) and CCL-1 luminescence imaging (6 mg kg^−1).

## C[N+](C)(C)CCO.C[N+](C)(C)CCO.[SH-].[SH-].[S]=[Mo]=[S] [ATN224]
[1]
  median survival: 32 days
[2]
  apoptosis (cleaved caspase 3): but not with ATN224 treatment

## Cc1cc(-c2nc(-c3ccc(OC(F)(F)F)cc3)no2)nn1Cc1ccnc(N2CCN(C3CC3)CC2)c1 [BAY 87-2243]
[3]
  oxygen consumption (OCR): almost completely inhibited the oxygen consumption
[2]
  apoptosis (cleaved caspase 3): barely induced apoptosis

## O=C(O)CN(CCN(CC(=O)O)CC(=O)O)CC(=O)O [EDTA, ethylenediaminetetraacetic acid]
MDA-MB-231luc cells
  CCL-1 luminescence (labile copper): 78.6±11.7 % of the CDN group
  CDM fluorescence: 123.7±4.1 % of the CDN group

## Cc1nc(-c2nc(-c3ccc(OC(F)(F)F)cc3)no2)nn1Cc1cccc(N2CCC(S(C)(=O)=O)CC2)c1 [IACS-010759]
[3]
  oxygen consumption (OCR): almost completely inhibited the oxygen consumption
[2]
  apoptosis (cleaved caspase 3): barely induced apoptosis

## CC1(C)CC(NC(=O)C[P+](c2ccccc2)(c2ccccc2)c2ccccc2)CC(C)(C)N1[O] [MitoTEMPO]
[4]; CDM 1 μM, 24 h
  rescue of cells from the CDN treatment effect: did not rescue the cells
[4]; medium with or without FBS
  effect on cell viability: will not affect the cell viability

## [SH-].[SH-].[S]=[Mo]=[S] [TM, tetrathiomolybdate]
MDA-MB-231 cells
  IC50: > 100 µM
MDA-MB-468 cells
  IC50: ~46.3 µM

## c1ccc(CN(Cc2ccccn2)Cc2ccccn2)nc1 [TPA, tris[(2-pyridyl)-methyl]amine]
[1]
  median survival: 35 days
MDA-MB-231 cells; Homo sapiens
  IC50: 9.25 ± 2.19 µM
MDA-MB-468 cells; Homo sapiens
  IC50: 5.34 ± 1.12 µM
[5]
  copper in the tumor region (CCL-1 to d-luciferin total flux ratio): successfully depleted the copper in the tumor region
